What was measured:
[1] = target: T1, 6PGDH (6-phosphogluconate dehydrogenase) (Rattus norvegicus, UniProt P85968); assay: NADPH absorbance at […] nm in astrocyte lysate; type: biochemical
T1 construct: gene Pgd; native cytosolic enzyme in soluble lysate supernatant of primary astrocyte-rich cultures; not purified
T1 sequence (P85968 2-483): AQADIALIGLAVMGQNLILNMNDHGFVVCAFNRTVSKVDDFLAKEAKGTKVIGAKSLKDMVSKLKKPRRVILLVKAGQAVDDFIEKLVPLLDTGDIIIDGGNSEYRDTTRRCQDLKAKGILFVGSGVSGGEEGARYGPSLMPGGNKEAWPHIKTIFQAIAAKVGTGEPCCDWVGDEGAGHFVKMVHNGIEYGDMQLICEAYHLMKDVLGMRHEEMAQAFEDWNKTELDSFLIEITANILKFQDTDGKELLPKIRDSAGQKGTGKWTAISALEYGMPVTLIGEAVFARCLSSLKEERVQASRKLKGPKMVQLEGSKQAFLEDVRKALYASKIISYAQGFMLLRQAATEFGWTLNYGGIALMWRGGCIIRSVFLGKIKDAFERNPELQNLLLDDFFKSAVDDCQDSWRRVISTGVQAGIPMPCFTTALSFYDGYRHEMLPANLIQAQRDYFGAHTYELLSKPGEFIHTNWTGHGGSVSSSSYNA

[2] = target: T2, G6PDH (glucose-6-phosphate dehydrogenase) (Rattus norvegicus, UniProt P05370); assay: NADPH absorbance at […] nm in astrocyte lysate; type: biochemical; settings: 3.3 mM G6P, 0.2 mM NADP+, 6.3 mM MgCl2, 5 mM maleimide, pH 7.5, room temperature; read-out: half-maximal inhibition
T2 construct: gene G6pdx; native cytosolic enzyme in soluble lysate supernatant of primary astrocyte-rich cultures; not purified
T2 sequence (P05370 2-515): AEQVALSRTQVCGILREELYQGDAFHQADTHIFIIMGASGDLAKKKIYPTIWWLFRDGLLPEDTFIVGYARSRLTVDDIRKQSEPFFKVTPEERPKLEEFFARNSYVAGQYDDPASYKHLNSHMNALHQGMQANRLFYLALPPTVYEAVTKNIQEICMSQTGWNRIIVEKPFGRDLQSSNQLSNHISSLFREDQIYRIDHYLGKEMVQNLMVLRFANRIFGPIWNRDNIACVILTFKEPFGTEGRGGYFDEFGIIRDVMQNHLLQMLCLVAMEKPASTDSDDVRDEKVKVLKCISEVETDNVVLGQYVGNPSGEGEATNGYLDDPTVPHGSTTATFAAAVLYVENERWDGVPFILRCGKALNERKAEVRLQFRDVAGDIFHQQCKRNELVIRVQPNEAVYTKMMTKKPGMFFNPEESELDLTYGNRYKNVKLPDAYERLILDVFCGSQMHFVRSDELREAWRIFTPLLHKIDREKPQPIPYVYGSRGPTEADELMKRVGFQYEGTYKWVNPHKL

Structure (SMILES) | inhibition at 100 µM [1] [%] | IC50 [2] [µM]
N#Cc1cc(Nc2ncc3c(n2)CCCCC3=O)cs1 [G6PDi-1] | 15 | –
C[C@]12CC[C@H](O)CC1=CC[C@@H]1[C@@H]2CC[C@]2(C)C(=O)CC[C@@H]12 [DHEA] | – | 9.2 ± 3.5
